Experimental data as given in patent US20160178610A1, “New screening method for the treatment Friedreich's ataxia” (FRIEDRICH MIESCHER INSTITUTE FOR BIOMEDICAL RESEARCH, priority 2013, published 2016).

How the values were obtained:
[1] = system: FRDA-iPSC-derived neurons; test: Neuron viability / compound toxicity in FRDA-iPSC-derived neuron cultures; type: cell-based, human; conditions: even at 10 μM
Protocol: (§1) FIG. 1: Exposure of FRDA-iPSC-derived neurons to [2,6] Naphtyhyridine is the cyclohexyl-[4-(4-phenyl-1-piperazin-1-yl-[2,6]naphthyridin-3-yl)pyridin-2-yl]amine, a chemical inhibitor of PRKD1, leads to an increase in FXN expression while a control compound has no effect. […] FXN mRNA levels were determined by real-time RT-PCR, normalized to RPL13A mRNA levels. *P=0.03.
Importantly, treatment with the compound of formula (II) led to a 25% increase in FXN mRNA expression in FRDA neurons after only 3 weeks of treatment. […] In addition, neuron viability was not affected by exposure to the compound of formula (II), even at 10 μM.

[2] = system: endogenous FXN gene expression in FRDA-iPSC-derived neurons; test: FXN mRNA levels in FRDA-iPSC-derived neurons by real-time RT-PCR, normalized to RPL13A; type: cell-based, human; conditions: for effect on FXN expression: FRDA-iPSC-derived neurons, treated for 3 weeks, five concentrations, biological duplicates
Protocol: as §1
For quantitative RT-PCR (qRT-PCR) experiments, total RNA was extracted from GM04078, FRDA-4078iBT, and HEK293T-FF2AP cell lines with the Absolutely RNA Microprep Kit (Stratagene). A 1-μg aliquot of total RNA was reverse transcribed with AffinityScript enzyme (Stratagene) using random hexamers according to the manufacturer's instructions. qRT-PCR was performed on a CFX96 Real-Time PCR System (Bio-Rad) using the SsoAdvanced SYBR Green Supermix (Bio-Rad, #172-5264). Relative RNA levels were calculated from CT values according to the ΔCT method and normalized to GAPDH mRNA or 18S rRNA levels. Reprogrammed cells were washed once and total RNA isolated using TRIzol (Life Technologies). After chloroform extraction, RNA was purified using a RNeasy Plus Kit (Qiagen, Germantown, Md.). RNA purity and concentration were verified using an Aligent 2100 Bioanalyzer (Santa Clara, Calif.). […]
Endoderm: Accutase was used for cell dissociation to single cells, which were then plated on matrigel in mTeSR with rock-inhibitor Y27632 (Calbiochem, Darmstadt, Germany) at a density of 100×10^3 per cm^2. […] In order to quantify the efficiency of differentiation into Pax6-expressing neural progenitors, immunostained cultures were generated and the percentage of Pax6-positive and DAPI-positive cells determined in 10 randomly selected microscopic fields. In order to quantify the efficiency of differentiation into β-III Tubulin-expressing neurons, a similar approach was used with cultures previously treated with cytosine-1-β-D-arabinofuranoside to prevent the expansion of neural progenitors. […]

SMILES: c1ccc(-c2c(-c3ccnc(NC4CCCCC4)c3)nc(N3CCNCC3)c3ccncc23)cc1 [compound of formula (II), cyclohexyl-[4-(4-phenyl-1-piperazin-1-yl-[2,6]naphthyridin-3-yl)pyridin-2-yl]amine]
- neuron viability [1]: not affected
- increase in FXN mRNA expression ([2]; FRDA neurons, after 3 weeks of treatment): 25%
- effect on FXN expression [2]: significant increase
- effect on FXN expression ([2]; listed as cyclohexyl-[4-(4-phenyl-1-piperazin-1-yl-[2,6]naphthyridin-3-yl)pyridin-2-yl]ami): increase
